Experimental data from patent publication US8785594B2, “Glycoproteins and glycosylated cells and a method for the preparation of the same” (Glycom A/S, priority 2007, dated 2014).

How the values were obtained:
Type in all cases: cell-based
B16.BL6 melanoma cells [1] = experiment: Flow cytometry with FITC-labelled GS1B4 (Example 11)
Experimental: (§1) Five hundred mg of alpha-Gal trisaccharide-carbamate (9) was dissolved in PBS (without Mg^2+ and Ca^2+) (Gibco Invitrogen, Taastrup, Denmark) and passed through a sterile filter (Sartorius Minisart®, 0.20 my) (Sartorius, Goettingen, Germany). Eight different concentrations of conjugate were prepared. Two mL of each conjugate dilution was added to a flask with 2 mL of PBS (without Mg^2+ and Ca^2+) and 600 μl of cell suspension containing 10^6 B16.BL6 cells. The final volume of the flasks was 4.6 mL. The flasks were numbered 1 to 10. Flasks 1 and 10 contained no conjugate and served as controls. The cells were incubated with the conjugate for 3 hours and 25 minutes at 37° C. and 5% CO2.
B16.BL6 cells from conjugation reaction 1 (non-conjugated cells), 2, 4, 6 and 8 were analysed by flow cytometry. One hundred μL of cell suspension containing 1×10^5 cells were incubated for 15 minutes at 4° C. with 10 μg per mL (1:100 dilution) of FITC-labelled GS1B4 in TBS containing 1% BSA. The proportion of cells stained, mean and median cell fluorescence intensity was determined by flow cytometry. Afterwards, cells were washed once in PBS and measurements were repeated. Rabbit red blood cells (RRBC) known to express ˜2×10^6 Galα1,3Gal epitopes per cell were used for comparison. The analyses of conjugated B16.BL6 cells and RRBCs were performed on different days.

B16.BL6 melanoma cells [2] = experiment: Cell concentration and viability after conjugation, trypan blue (Example 11)
Experimental: Two flasks (300 cm^2) (TPP, Trasadingen Switzerland) of confluent B16.BL6 melanoma cells grown in DMEM containing 10% fetal calf serum (without P/S) at 37.5° C. in 5% CO2 were used for this experiment. Growth medium was removed from the cells and 25 mL of PBS (without Mg^2+ and Ca^2+) (Gibco Invitrogen, Taastrup, Denmark) was added to the cells and immediately removed again. Another 10 mL of PBS was added and removed, before cells were harvested with Cell Dissociation Solution C5914 (Sigma-aldrich, Saint Louis, Mo.) (3 mL per flask) and transferred to 10 mL tubes (TPP, Trasadingen Switzerland). The cells were centrifuged for 5 minutes at 300 G at 20° C. and the supernatant was discarded. Subsequently, cells were washed in PBS (without Mg^2+ and Ca^2+), centrifuged as above and resuspended in PBS (without Mg^2+ and Ca^2+). The concentration of the cell suspension was determined.
as §1
After conjugation, cells from conjugation reaction 1 (non-conjugated cells), 2, 4, 6 and 8 were harvested with 10 mL of Cell Dissociation Solution C5914 (Sigma-Aldrich, Saint Louis, Mo.) and transferred to 10 mL tubes (TPP, Trasadingen Switzerland). Cells were centrifuged for 5 minutes at 300 G at 20° C. and resuspended in PBS (without Mg^2+ and Ca^2+). Finally, cells were centrifuged as before and resuspended in 100 μl TBS with 1% BSA. Cell concentration and viability was determined by microscopic evaluation of trypan blue stained cell samples. Cells from conjugation reaction 3, 5, 7, 9 and 10 (non-conjugated cells), were harvested the following day as described above. The cells were centrifuged once for 5 minutes at 300 G at 20° C. and resuspended in 100 μl TBS with 1% BSA. Cell concentration and viability was determined by microscopic evaluation of trypan blue stained cell samples.

B16.BL6 melanoma cells [3] = experiment: Cell viability after 1 hour conjugation, trypan blue (Example 12); conditions: for Viability of cells harvested: 1 hour
Experimental: The alpha-Gal trisaccharide-carbamate probe (9) was dissolved in both PBS (without Mg^2+ and Ca^2+) (Gibco Invitrogen, Taastrup, Denmark) and HBSS (with D-glucose) (Gibco Invitrogen, Taastrup, Denmark) and passed through sterile filters (Sartorius Minisart®, 0.20 my) (Sartorius, Goettingen, Germany). Three different concentrations of the trisaccharide probe were prepared in both PBS and HBSS.
Eight small flasks (25 cm^2) (TPP, Trasadingen Switzerland) were prepared, each containing 10^6 B16.BL6 cells, and the trisaccharide probe was added. Total volume of the flasks was 4.6 mL. The cells were incubated with the conjugate for 1 hour at 37° C. and 5% CO2.
After conjugation, the supernatant from each flask was transferred to separate 10 mL tubes (TPP, Trasadingen Switzerland). The cells were harvested with Cell Dissociation Solution (2 mL per flask) (Sigma-aldrich, Saint Louis, Mo.) and transferred to the 10 mL tubes. Cells were centrifuged for 5 minutes at 300 G at 20° C. and resuspended in 0.5 mL of PBS or HBSS. Cell concentration and viability was determined by microscopic evaluation of trypan blue stained cell samples.

[4] = unwashed cells, reaction 2 (200 mg conjugate)
[5] = unwashed cells, reaction 6 (10 mg conjugate)
[6] = unwashed cells, reaction 8 (2 mg conjugate)
[7] = washed cells, reaction 2 (200 mg conjugate)
[8] = washed cells, reaction 6 (10 mg conjugate)
[9] = washed cells, reaction 8 (2 mg conjugate)
[10] = reaction 2, 200 mg conjugate, 10^6 cells, PBS, 3 h 25 min 37° C.
[11] = reaction 3, 100 mg conjugate, measured 1 day after the conjugation procedure
[12] = reaction 5, 20 mg conjugate, measured 1 day after the conjugation procedure
[13] = reaction 7, 5 mg conjugate, measured 1 day after the conjugation procedure
[14] = reaction 9, 1 mg conjugate, measured 1 day after the conjugation procedure

SMILES: O=C1N[C@@H]2O[C@H](CO)[C@@H](O[C@@H]3O[C@H](CO)[C@H](O)[C@H](O[C@H]4O[C@H](CO)[C@H](O)[C@H](O)[C@H]4O)[C@H]3O)[C@H](O)[C@H]2O1 [Compound 9, alpha-Gal trisaccharide-carbamate]
- Galα1,3Gal epitopes detected by binding of FITC-labelled GS1B4, flow cytometry (B16.BL6 melanoma cells [1]; conjugation reactions 2, 6 and 8): found on B16.BL6 cells from all conjugation reactions tested
- Number of Galα1,3Gal-epitopes on the conjugated cells (B16.BL6 melanoma cells [1]; from fluorescence intensity, compared with rabbit red blood cells): > 2×10^6 Galα1,3Gal epitopes
- Cells marked with FITC-GS1B4 (B16.BL6 melanoma cells [1]; reaction 2 (200 mg conjugate)): 95.82%
- Cells marked with FITC-GS1B4 (B16.BL6 melanoma cells [1]; reaction 6, 10 mg conjugate): 62.17%
- Cells marked with FITC-GS1B4 (B16.BL6 melanoma cells [1]; reaction 8, 2 mg conjugate): 56.82%
- Mean fluorescence intensity (B16.BL6 melanoma cells [1]; [4]): 726.72
- Median fluorescence intensity (B16.BL6 melanoma cells [1]; [4]): 523.30
- Mean fluorescence intensity (B16.BL6 melanoma cells [1]; [5]): 862.24
- Median fluorescence intensity (B16.BL6 melanoma cells [1]; [5]): 798.63
- Mean fluorescence intensity (B16.BL6 melanoma cells [1]; [6]): 594.99
- Median fluorescence intensity (B16.BL6 melanoma cells [1]; [6]): 572.55
- Mean fluorescence intensity (B16.BL6 melanoma cells [1]; [7]): 447.48
- Median fluorescence intensity (B16.BL6 melanoma cells [1]; [7]): 321.97
- Mean fluorescence intensity (B16.BL6 melanoma cells [1]; [8]): 439.04
- Median fluorescence intensity (B16.BL6 melanoma cells [1]; [8]): 406.79
- Mean fluorescence intensity (B16.BL6 melanoma cells [1]; [9]): 264.30
- Median fluorescence intensity (B16.BL6 melanoma cells [1]; [9]): 259.45
- Cell concentration (B16.BL6 melanoma cells [2]; [10]): 3.50 × 10^6 cells/mL
- Cell viability (B16.BL6 melanoma cells [2]; [10]): 58.9%
- Cell concentration (B16.BL6 melanoma cells [2]; [11]): 3.08 × 10^6 cells/mL
- Cell viability (B16.BL6 melanoma cells [2]; [11]): 65.6%
- Cell concentration (B16.BL6 melanoma cells [2]; reaction 4, 50 mg conjugate): 3.16 × 10^6 cells/mL
- Cell viability (B16.BL6 melanoma cells [2]; reaction 4, 50 mg conjugate): 1.9%
- Cell concentration (B16.BL6 melanoma cells [2]; [12]): 1.90 × 10^6 cells/mL
- Cell viability (B16.BL6 melanoma cells [2]; [12]): 0.0%
- Cell concentration (B16.BL6 melanoma cells [2]; reaction 6, 10 mg conjugate): 2.26 × 10^6 cells/mL
- Cell viability (B16.BL6 melanoma cells [2]; reaction 6, 10 mg conjugate): 16.8%
- Cell concentration (B16.BL6 melanoma cells [2]; [13]): 2.02 × 10^6 cells/mL
- Cell viability (B16.BL6 melanoma cells [2]; [13]): 34.7%
- Cell concentration (B16.BL6 melanoma cells [2]; reaction 8, 2 mg conjugate): 2.22 × 10^6 cells/mL
- Cell viability (B16.BL6 melanoma cells [2]; reaction 8, 2 mg conjugate): 8.1%
- Cell concentration (B16.BL6 melanoma cells [2]; [14]): 2.12 × 10^6 cells/mL
- Cell viability (B16.BL6 melanoma cells [2]; [14]): 16.0%
- Viability of cells after incubation, before harvest (B16.BL6 melanoma cells [3]; after the 1-hour incubation with the trisaccharide probe): most of the cells were viable
- Viability of cells harvested (B16.BL6 melanoma cells [3]; reaction HA, 16 mg, HBSS (with D-glucose)): 33.3%
- Viability of cells harvested (B16.BL6 melanoma cells [3]; reaction HB, 2 mg, HBSS (with D-glucose)): 41.7%
- Viability of cells harvested (B16.BL6 melanoma cells [3]; reaction HC, 1 mg, HBSS (with D-glucose)): 41.6%
- Viability of cells harvested (B16.BL6 melanoma cells [3]; reaction PA, 16 mg, PBS): 14.3%
- Viability of cells harvested (B16.BL6 melanoma cells [3]; reaction PB, 2 mg, PBS): 32.0%
- Viability of cells harvested (B16.BL6 melanoma cells [3]; reaction PC, 1 mg, PBS): 37.5%
